We go through 25 compounds from US11267800B2, “Cyclohexyl acid triazole azines as LPA antagonists” (BRISTOL-MYERS SQUIBB COMPANY, priority 2017, dated 2022).

In general, IC50 refers to the concentration at which inhibition is half-maximal.

SMILES strings stand for the structures. Structures can show the parent of a compound that is named as a salt.

The target of this test is T1, human LPA1 (Homo sapiens, UniProt Q92633).
T1 construct: expressed in transfected cells; host or cells: Chinese hamster ovary (CHO) cells
T1 sequence (Q92633 whole entry): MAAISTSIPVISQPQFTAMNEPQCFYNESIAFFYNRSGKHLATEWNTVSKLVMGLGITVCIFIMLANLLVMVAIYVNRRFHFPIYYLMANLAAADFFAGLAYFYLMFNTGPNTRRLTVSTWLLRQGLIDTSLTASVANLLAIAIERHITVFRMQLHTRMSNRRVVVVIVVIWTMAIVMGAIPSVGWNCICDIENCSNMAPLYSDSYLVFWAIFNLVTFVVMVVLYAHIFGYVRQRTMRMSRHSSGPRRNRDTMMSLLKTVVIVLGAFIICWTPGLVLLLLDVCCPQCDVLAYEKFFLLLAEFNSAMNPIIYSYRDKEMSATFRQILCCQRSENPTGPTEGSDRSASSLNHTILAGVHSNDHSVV
Kind of test: LPA1 functional antagonist assay (calcium flux). The settings on record: CHO cells overexpressing human LPA1; inhibition of calcium flux induced by 10 nM LPA; read-out: hLPA1 IC50. Format: cell-based. In outline:
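IC50 values come from 4-parameter logistic fits and mark 50% block of the calcium flux evoked by 10 nM LPA. Human LPA1-overexpressing CHO cells were calcium-dye loaded at 37 °C, then given test compound (0.08 nM–5 μM, 0.5% DMSO, HEPES-buffered HBSS with 0.1% fatty-acid-free BSA) for 20 min at room temperature before agonist.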
Take `CCc1ncnc(NCc2c(-c3ccc(O[C@H]4CCC[C@H](C(=O)O)C4)c(C)n3)nnn2C)n1` [Example 194, (1S,3S)-3-((6-(5-(((4-Ethyl-1,3,5-triazin-2-yl)amino)methyl)-1-methyl-1H-1,2,3-triazol-4-yl)-2-methyl-pyridin-3-yl)oxy)cyclohexane-1-carboxylic acid]: the IC50 amounted to 63 nM.

As for `CCCc1ncnc(NCc2c(-c3ccc(O[C@H]4CCC[C@H](C(=O)O)C4)c(C)n3)nnn2C)n1` [Example 195, (1S,3S)-3-((2-Methyl-6-(1-methyl-5-(((4-propyl-1,3,5-triazin-2-yl)amino)methyl)-1H-1,2,3-triazol-4-yl)pyridin-3-yl)oxy)cyclohexane-1-carboxylic acid], the IC50 came to 225 nM.

Turning to `Cc1ncnc(NCc2c(-c3ccc(O[C@H]4CCC[C@H](C(=O)O)C4)c(C)n3)nnn2C)n1` [Example 196, (1S,3S)-3-((2-Methyl-6-(1-methyl-5-(((4-methyl-1,3,5-triazin-2-yl)amino)methyl)-1H-1,2,3-triazol-4-yl)pyridin-3-yl)oxy)cyclohexane-1-carboxylic acid], the IC50 was 2190 nM.

For `CCCCc1ncnc(NCc2c(-c3ccc(O[C@H]4CCC[C@H](C(=O)O)C4)c(C)n3)nnn2C)n1` [Example 199, (1S,3S)-3-((6-(5-(((4-Butyl-1,3,5-triazin-2-yl)amino)methyl)-1-methyl-1H-1,2,3-triazol-4-yl)-2-methyl-pyridin-3-yl)oxy)cyclohexane-1-carboxylic acid], the IC50 was determined as 29 nM.

On to `Cc1nc(-c2nnn(C)c2CNc2ncnc(CC(C)C)n2)ccc1O[C@H]1CCC[C@H](C(=O)O)C1` [Example 200, (1S,3S)-3-((6-(5-(((4-Isobutyl-1,3,5-triazin-2-yl)amino)methyl)-1-methyl-1H-1,2,3-triazol-4-yl)-2-methyl-pyridin-3-yl)oxy)cyclohexane-1-carboxylic acid], for which the IC50 worked out at 77 nM.

`COc1nc(NCc2c(-c3ccc(O[C@H]4CCC[C@H](C(=O)O)C4)c(C)n3)nnn2C)nc(C2CC2)n1` [Example 201, (1S,3S)-3-((6-(5-(((4-Cyclopropyl-6-methoxy-1,3,5-triazin-2-yl)amino)methyl)-1-methyl-1H-1,2,3-triazol-4-yl)-2-methylpyridin-3-yl)oxy)cyclohexane-1-carboxylic acid, bis TFA Salt]: the IC50 is 105 nM.

Regarding `CCOc1nc(NCc2c(-c3ccc(O[C@H]4CCC[C@H](C(=O)O)C4)c(C)n3)nnn2C)nc(C2CC2)n1` [Example 202, (1S,3S)-3-((6-(5-(((4-Cyclopropyl-6-ethoxy-1,3,5-triazin-2-yl)amino)methyl)-1-methyl-1H-1,2,3-triazol-4-yl)-2-methylpyridin-3-yl)oxy) cyclohexane-1-carboxylic acid], the IC50 worked out at 32 nM.

`CCc1nc(CC)nc(NCc2c(-c3ccc(O[C@H]4CCC[C@H](C(=O)O)C4)c(C)n3)nnn2C)n1` [Example 203, (1S,3S)-3-((6-(5-(((4,6-Diethyl-1,3,5-triazin-2-yl)amino)methyl)-1-methyl-1H-1,2,3-triazol-4-yl)-2-methyl-pyridin-3-yl)oxy)cyclohexane-1-carboxylic acid]: the IC50 was found to be 59 nM.

As for `CCC(C)Cc1ncnc(NCc2c(-c3ccc(O[C@H]4CCC[C@H](C(=O)O)C4)c(C)n3)nnn2C)n1` (stereo partly drawn) [Example 204, (1S,3S)-3-((2-Methyl-6-(1-methyl-5-(((4-(2-methylbutyl)-1,3,5-triazin-2-yl)amino)methyl)-1H-1,2,3-triazol-4-yl)pyridin-3-yl)oxy)cyclohexane-1-carboxylic acid], the IC50 amounted to 106 nM.

As to `Cc1nc(-c2nnn(C)c2CNc2ncnc(CCC(C)C)n2)ccc1O[C@H]1CCC[C@H](C(=O)O)C1` [Example 205, (1S,3S)-3-((6-(5-(((4-Isopentyl-1,3,5-triazin-2-yl)amino)methyl)-1-methyl-1H-1,2,3-triazol-4-yl)-2-methyl-pyridin-3-yl)oxy)cyclohexane-1-carboxylic acid], the IC50 came out at 40 nM.

For the compound `Cc1nc(-c2nnn(C)c2CNc2ncnc(CCC(C)(C)C)n2)ccc1O[C@H]1CCC[C@H](C(=O)O)C1` [Example 206, (1S,3S)-3-((6-(5-(((4-(3,3-Dimethylbutyl)-1,3,5-triazin-2-yl)amino)methyl)-1-methyl-1H-1,2,3-triazol-4-yl)-2-methylpyridin-3-yl)oxy)cyclohexane-1-carboxylic acid], the IC50 stood at 120 nM.

For `Cc1nc(-c2nnn(C)c2CNc2ncnc(C3(C)CC3)n2)ccc1O[C@H]1CCC[C@H](C(=O)O)C1` [Example 207, (1S,3S)-3-((2-Methyl-6-(1-methyl-5-(((4-(1-methylcyclopropyl)-1,3,5-triazin-2-yl)amino)methyl)-1H-1,2,3-triazol-4-yl)pyridin-3-yl)oxy) cyclohexane-1-carboxylic acid], the IC50 worked out at 53 nM.

For the compound `CCOc1ncnc(NCc2c(-c3ccc(O[C@H]4CCC[C@H](C(=O)O)C4)c(C)n3)nnn2C)n1` [Example 208, (1S,3S)-3-((6-(5-(((4-Ethoxy-1,3,5-triazin-2-yl)amino)methyl)-1-methyl-1H-1,2,3-triazol-4-yl)-2-methyl-pyridin-3-yl)oxy)cyclohexane-1-carboxylic acid], the IC50 is 89 nM.

Regarding `CCCCc1nc(C)nc(NCc2c(-c3ccc(O[C@H]4CCC[C@H](C(=O)O)C4)c(C)n3)nnn2C)n1` [Example 209, (1S,3S)-3-((6-(5-(((4-Butyl-6-methyl-1,3,5-triazin-2-yl)amino)methyl)-1-methyl-1H-1,2,3-triazol-4-yl)-2-methylpyridin-3-yl)oxy)cyclohexane-1-carboxylic acid], the IC50 was determined as 62 nM.

On to `Cc1nc(-c2nnn(C)c2CNc2ncnc(OC3CC3)n2)ccc1O[C@H]1CCC[C@H](C(=O)O)C1` [Example 210, (1S,3S)-3-((6-(5-(((4-cyclopropoxy-1,3,5-triazin-2-yl)amino)methyl)-1-methyl-1H-1,2,3-triazol-4-yl)-2-methylpyridin-3-yl)oxy)cyclohexane-1-carboxylic acid], for which the IC50 came to 102 nM.

With `Cc1nc(-c2nnn(C)c2CNc2ncnc(OC3CCC3)n2)ccc1O[C@H]1CCC[C@H](C(=O)O)C1` [Example 211, (1S,3S)-3-((6-(5-(((4-cyclobutoxy-1,3,5-triazin-2-yl)amino)methyl)-1-methyl-1H-1,2,3-triazol-4-yl)-2-methylpyridin-3-yl)oxy)cyclohexane-1-carboxylic acid], the IC50 was 103 nM.

`CCCc1cnnc(NCc2c(-c3ccc(O[C@H]4CCC[C@H](C(=O)O)C4)c(C)n3)nnn2C)c1` [Example 212, (1S,3S)-3-((2-Methyl-6-(1-methyl-5-(((5-propylpyridazin-3-yl)amino)methyl)-1H-1,2,3-triazol-4-yl)pyridin-3-yl)oxy)cyclohexane-1-carboxylic acid]: the IC50 came out at 93 nM.

On to `CCCc1ncnc(NCCc2c(-c3ccc(O[C@H]4CCC[C@H](C(=O)O)C4)c(C)n3)nnn2C)n1` [Example 213, (1S,3S)-3-((2-Methyl-6-(1-methyl-5-(2-((4-propyl-1,3,5-triazin-2-yl)amino)ethyl)-1H-1,2,3-triazol-4-yl)pyridin-3-yl)oxy)cyclohexane-1-carboxylic acid], for which the IC50 is 1260 nM.

In the case of `Cc1nc(-c2nnn(C)c2CNc2cc(-c3ccccc3)cnn2)ccc1O[C@H]1CCC[C@H](C(=O)O)C1` [Example 214, (1S,3S)-3-((2-Methyl-6-(1-methyl-5-(((5-phenylpyridazin-3-yl)amino)methyl)-1H-1,2,3-triazol-4-yl)pyridin-3-yl)oxy)cyclohexane-1-carboxylic acid], the IC50 amounted to 297 nM.

In the case of `Cc1nc(-c2nnn(C)c2CNc2cc(C3CC3)cnn2)ccc1O[C@H]1CCC[C@H](C(=O)O)C1` [Example 215, (1S,3S)-3-((6-(5-(((5-Cyclopropyl-pyridazin-3-yl)amino)methyl)-1-methyl-1H-1,2,3-triazol-4-yl)-2-methylpyridin-3-yl)oxy)cyclohexane-1-carboxylic acid], the IC50 stood at 278 nM.

Turning to `Cc1nc(-c2nnn(C)c2CNc2nnc(Cl)cc2C2CC2)ccc1O[C@H]1CCC[C@H](C(=O)O)C1` [Example 216, (1S,3S)-3-((6-(5-(((6-Chloro-4-cyclopropylpyridazin-3-yl)amino)methyl)-1-methyl-1H-1,2,3-triazol-4-yl)-2-methylpyridin-3-yl)oxy) cyclohexane-1-carboxylic acid], the IC50 amounted to 379 nM.

Take `Cc1nc(-c2nnn(C)c2CNc2cc(C(C)C)cnn2)ccc1O[C@H]1CCC[C@H](C(=O)O)C1` [Example 217, (1S,3S)-3-((6-(5-(((5-Isopropyl-pyridazin-3-yl)amino)methyl)-1-methyl-1H-1,2,3-triazol-4-yl)-2-methylpyridin-3-yl)oxy)cyclohexane-1-carboxylic acid]: the IC50 amounted to 97 nM.

For `Cc1nc(-c2nnn(C)c2CNc2nnccc2OC2CC2)ccc1O[C@H]1CCC[C@H](C(=O)O)C1` [Example 218, (1S,3S)-3-((6-(5-(((4-Cyclopropoxy-pyridazin-3-yl)amino)methyl)-1-methyl-1H-1,2,3-triazol-4-yl)-2-methylpyridin-3-yl)oxy)cyclohexane-1-carboxylic acid], the IC50 stood at 213 nM.

Regarding `Cc1nc(-c2nnn(C)c2CNc2cc(OC3CC3)cnn2)ccc1O[C@H]1CCC[C@H](C(=O)O)C1` [Example 219, (1S,3S)-3-((6-(5-(((5-Cyclopropoxy-pyridazin-3-yl)amino)methyl)-1-methyl-1H-1,2,3-triazol-4-yl)-2-methylpyridin-3-yl)oxy)cyclohexane-1-carboxylic acid], the IC50 worked out at 138 nM.

As to `Cc1nc(-c2nnn(C)c2CNc2cncc(-c3ccccc3)n2)ccc1O[C@H]1CCC[C@H](C(=O)O)C1` [Example 220, (1S,3S)-3-((2-Methyl-6-(1-methyl-5-(((6-phenylpyrazin-2-yl)amino)methyl)-1H-1,2,3-triazol-4-yl)pyridin-3-yl)oxy)cyclohexane-1-carboxylic acid], the IC50 turned out to be 30 nM.
